Here are results for one compound from paper PMC2655357 (The Febs Journal, 2008).

This assay concerns the target AaIspE (Aquifex aeolicus, UniProt O67060). Description: crystal structure. As to conditions: co-crystallized with 4 mM AMP-PNP and 4 mM CDP; substrate (CDPME) site. The assay is classed as binding.

AaIspE, sequence (O67060 whole entry): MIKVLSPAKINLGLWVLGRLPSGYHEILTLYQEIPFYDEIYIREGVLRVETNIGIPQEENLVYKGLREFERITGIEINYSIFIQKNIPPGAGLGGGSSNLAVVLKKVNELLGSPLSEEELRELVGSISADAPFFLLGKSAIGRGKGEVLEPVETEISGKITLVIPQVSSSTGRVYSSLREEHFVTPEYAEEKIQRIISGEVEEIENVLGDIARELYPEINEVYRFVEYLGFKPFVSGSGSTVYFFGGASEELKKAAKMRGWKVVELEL

As to `Nc1ccn([C@@H]2O[C@H](COP(=O)(O)OP(=O)(O)O)[C@@H](O)[C@H]2O)c(=O)n1` [CDP], the “crystal structure (complex I, 2.1 Å)” value is “In complex I, CDP displays a single conformation in molecule A and three in molecule B”.
